The subject of this series is CCRIS mutagenicity, Ames/micronucleus/aberration tests. Nature of the series: CCRIS mutagenicity studies.
Where [1] appears, read: Test System: AMES SALMONELLA TYPHIMURIUM, Strain/Indicator: TA98, Metabolic Activation: NONE, Method: PREINCUBATION
Where [2] appears, read: Test System: AMES SALMONELLA TYPHIMURIUM, Strain/Indicator: TA100, Metabolic Activation: NONE, Method: PREINCUBATION
The mark [3] stands for this setting: Test System: AMES SALMONELLA TYPHIMURIUM, Strain/Indicator: TA98, Metabolic Activation: NONE, Method: STANDARD PLATE.
Setting [4] is: Test System: AMES SALMONELLA TYPHIMURIUM, Strain/Indicator: TA98, Metabolic Activation: RAT, LIVER, S-9, AROCLOR 1254, Method: STANDARD PLATE.
Setting [5] is: Test System: AMES SALMONELLA TYPHIMURIUM, Strain/Indicator: TA100, Metabolic Activation: NONE, Method: STANDARD PLATE.
The mark [6] stands for this setting: Test System: AMES SALMONELLA TYPHIMURIUM, Strain/Indicator: TA100, Metabolic Activation: RAT, LIVER, S-9, AROCLOR 1254, Method: STANDARD PLATE.

Active and inactive are the calls of the source. No rule for the calls is given here.

`C#CCNC(=NCCSCc1nc[nH]c1C)NC#N`: the mutagenic call reads like this: under setting [1], “inactive; negative”; (Test System: AMES SALMONELLA TYPHIMURIUM, Strain/Indicator: TA98, Metabolic Activation: RAT, LIVER, S-9, SODIUM PHENOBARBITAL AND BETA-NAPHTHOFLAVONE, Method: PREINCUBATION) “inactive; negative”; under setting [2], “inactive; negative”; (Test System: AMES SALMONELLA TYPHIMURIUM, Strain/Indicator: TA100, Metabolic Activation: RAT, LIVER, S-9, SODIUM PHENOBARBITAL AND BETA-NAPHTHOFLAVONE, Method: PREINCUBATION) “inactive; negative”; (Test System: AMES SALMONELLA TYPHIMURIUM, Strain/Indicator: TA1535, Metabolic Activation: NONE, Method: PREINCUBATION) “inactive; negative”; (Test System: AMES SALMONELLA TYPHIMURIUM, Strain/Indicator: TA1535, Metabolic Activation: RAT, LIVER, S-9, SODIUM PHENOBARBITAL AND BETA-NAPHTHOFLAVONE, Method: PREINCUBATION) “inactive; negative”. The mutagenic call is “inactive; negative” (Test System: AMES SALMONELLA TYPHIMURIUM, Strain/Indicator: TA1537, Metabolic Activation: NONE, Method: PREINCUBATION); “inactive; negative” (Test System: AMES SALMONELLA TYPHIMURIUM, Strain/Indicator: TA1537, Metabolic Activation: RAT, LIVER, S-9, SODIUM PHENOBARBITAL AND BETA-NAPHTHOFLAVONE, Method: PREINCUBATION); “inactive; negative” (Test System: AMES SALMONELLA TYPHIMURIUM, Strain/Indicator: TA1538, Metabolic Activation: NONE, Method: PREINCUBATION); “inactive; negative” (Test System: AMES SALMONELLA TYPHIMURIUM, Strain/Indicator: TA1538, Metabolic Activation: RAT, LIVER, S-9, SODIUM PHENOBARBITAL AND BETA-NAPHTHOFLAVONE, Method: PREINCUBATION); “inactive; negative” (Test System: CHINESE HAMSTER V-79, Strain/Indicator: V-79/6-THIOGUANINE, Metabolic Activation: NONE, Method: STANDARD PLATE); “inactive; negative” (Test System: CHINESE HAMSTER V-79, Strain/Indicator: V-79/6-THIOGUANINE, Metabolic Activation: RAT, LIVER, S-9, SODIUM PHENOBARBITAL AND BETA-NAPHTHOFLAVONE, Method: STANDARD PLATE). Moreover, the mutagenic call was “inactive; negative” (Test System: CHINESE HAMSTER V-79, Strain/Indicator: V-79/OUABAIN, Metabolic Activation: NONE, Method: STANDARD PLATE); “inactive; negative” (Test System: CHINESE HAMSTER V-79, Strain/Indicator: V-79/OUABAIN, Metabolic Activation: RAT, LIVER, S-9, SODIUM PHENOBARBITAL AND BETA-NAPHTHOFLAVONE, Method: STANDARD PLATE); “inactive; negative” (Test System: E. COLI, Strain/Indicator: WP2 (PKM101), Metabolic Activation: NONE, Method: PREINCUBATION); “inactive; negative” (Test System: E. COLI, Strain/Indicator: WP2 (PKM101), Metabolic Activation: RAT, LIVER, S-9, SODIUM PHENOBARBITAL AND BETA-NAPHTHOFLAVONE, Method: PREINCUBATION); “inactive; negative” (Test System: E. COLI, Strain/Indicator: WP2, Metabolic Activation: NONE, Method: PREINCUBATION); “inactive; negative” (Test System: E. COLI, Strain/Indicator: WP2, Metabolic Activation: RAT, LIVER, S-9, SODIUM PHENOBARBITAL AND BETA-NAPHTHOFLAVONE, Method: PREINCUBATION). In addition, the mutagenic call reads like this: (Test System: E. COLI, Strain/Indicator: WP2 UVRA (PKM101), Metabolic Activation: NONE, Method: PREINCUBATION) “inactive; negative”; (Test System: E. COLI, Strain/Indicator: WP2 UVRA (PKM101), Metabolic Activation: RAT, LIVER, S-9, SODIUM PHENOBARBITAL AND BETA-NAPHTHOFLAVONE, Method: PREINCUBATION) “inactive; negative”; (Test System: E. COLI, Strain/Indicator: WP2 UVRA, Metabolic Activation: NONE, Method: PREINCUBATION) “inactive; negative”; (Test System: E. COLI, Strain/Indicator: WP2 UVRA, Metabolic Activation: RAT, LIVER, S-9, SODIUM PHENOBARBITAL AND BETA-NAPHTHOFLAVONE, Method: PREINCUBATION) “inactive; negative”.
For the molecule `C=CCC1OC(=O)C=CC1O` (stereo unspecified), the mutagenic call is “inactive; negative” under setting [3], “inactive; negative” under setting [4], “inactive; negative” under setting [5] and “inactive; negative” under setting [6].
As for `Cc1c(N=O)c(=O)n(-c2ccccc2)n1C`, the mutagenic call was “active; positive” (Test System: AMES SALMONELLA TYPHIMURIUM, Strain/Indicator: TA97, Metabolic Activation: NONE, Method: STANDARD PLATE); “active; positive” (Test System: AMES SALMONELLA TYPHIMURIUM, Strain/Indicator: TA97, Metabolic Activation: RAT, LIVER, S-9, AROCLOR 1254, Method: STANDARD PLATE); “active; positive” under setting [3]; “active; positive” under setting [4]; “active; positive” under setting [5]; “active; positive” under setting [6]. The mutagenic call is “active; positive” (Test System: AMES SALMONELLA TYPHIMURIUM, Strain/Indicator: TA102, Metabolic Activation: NONE, Method: STANDARD PLATE); “active; positive” (Test System: AMES SALMONELLA TYPHIMURIUM, Strain/Indicator: TA102, Metabolic Activation: RAT, LIVER, S-9, AROCLOR 1254, Method: STANDARD PLATE); “active; positive” (Test System: AMES SALMONELLA TYPHIMURIUM, Strain/Indicator: TA104, Metabolic Activation: NONE, Method: STANDARD PLATE); “active; positive” (Test System: AMES SALMONELLA TYPHIMURIUM, Strain/Indicator: TA104, Metabolic Activation: RAT, LIVER, S-9, AROCLOR 1254, Method: STANDARD PLATE).
On to `Oc1cccc2ncccc12`, for which the mutagenic call by setting is: under setting [1], “inactive; negative”; (Test System: AMES SALMONELLA TYPHIMURIUM, Strain/Indicator: TA98, Metabolic Activation: RAT, LIVER, S-9, Method: PREINCUBATION) “active; positive”; under setting [2], “inactive; negative”; under setting [5], “inactive; negative”; (Test System: AMES SALMONELLA TYPHIMURIUM, Strain/Indicator: TA100, Metabolic Activation: RAT, LIVER, S-9, AROCLOR 1254 (10% OR 20%), Method: STANDARD PLATE) “active; positive”; (Test System: AMES SALMONELLA TYPHIMURIUM, Strain/Indicator: TA100, Metabolic Activation: RAT, LIVER, S-9, Method: PREINCUBATION) “active; positive”.
For `Cc1c2ccccc2c(CBr)c2c1ccc1ccccc12`, the mutagenic call runs as follows: under setting [3], “active; positive”; under setting [5], “active; positive”.
For the molecule `Nc1ccc2ccc3c4ccccc4cc4ccc1c2c43`, the mutagenic call was “active; positive” (Test System: AMES SALMONELLA TYPHIMURIUM, Strain/Indicator: TA98, Metabolic Activation: NONE) and “active; positive” (Test System: AMES SALMONELLA TYPHIMURIUM, Strain/Indicator: TA98, Metabolic Activation: RAT, LIVER, S-9, AROCLOR 1254).

The values above are taken from PubChem BioAssay AID1259407 (Chemical Carcinogenesis Research Information System (CCRIS), 2018).
